Experimental data: ChEMBL document CHEMBL1129189 (Bioorg Med Chem Lett, 1996)

What was measured:
[1] = molecular target: T1, Retinoic acid receptor gamma (Homo sapiens, UniProt P13631); experiment: Compound was tested for functional activity in CV-1 cells transfected with an expression vector for retinoic acid receptor gamma using transactivation assay; type: cell-based
T1 sequence (P13631 whole entry): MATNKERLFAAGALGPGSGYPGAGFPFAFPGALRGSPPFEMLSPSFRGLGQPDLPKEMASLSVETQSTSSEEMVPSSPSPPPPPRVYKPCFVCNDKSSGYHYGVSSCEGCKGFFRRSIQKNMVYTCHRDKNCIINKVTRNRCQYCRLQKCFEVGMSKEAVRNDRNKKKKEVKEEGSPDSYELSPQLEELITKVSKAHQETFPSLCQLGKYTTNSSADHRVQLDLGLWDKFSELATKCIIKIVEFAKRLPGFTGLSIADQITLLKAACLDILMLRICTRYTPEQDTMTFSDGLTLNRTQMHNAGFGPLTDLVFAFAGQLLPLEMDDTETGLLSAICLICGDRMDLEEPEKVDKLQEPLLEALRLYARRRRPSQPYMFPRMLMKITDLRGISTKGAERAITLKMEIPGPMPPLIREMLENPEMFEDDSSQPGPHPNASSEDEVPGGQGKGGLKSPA

[2] = molecular target: T2, Retinoic acid receptor RXR-beta (Homo sapiens, UniProt P28702); experiment: Compound was tested for functional activity in CV-1 cells transfected with an expression vector for retinoid X receptor beta using transactivation assay; type: cell-based
T2 sequence (P28702 whole entry): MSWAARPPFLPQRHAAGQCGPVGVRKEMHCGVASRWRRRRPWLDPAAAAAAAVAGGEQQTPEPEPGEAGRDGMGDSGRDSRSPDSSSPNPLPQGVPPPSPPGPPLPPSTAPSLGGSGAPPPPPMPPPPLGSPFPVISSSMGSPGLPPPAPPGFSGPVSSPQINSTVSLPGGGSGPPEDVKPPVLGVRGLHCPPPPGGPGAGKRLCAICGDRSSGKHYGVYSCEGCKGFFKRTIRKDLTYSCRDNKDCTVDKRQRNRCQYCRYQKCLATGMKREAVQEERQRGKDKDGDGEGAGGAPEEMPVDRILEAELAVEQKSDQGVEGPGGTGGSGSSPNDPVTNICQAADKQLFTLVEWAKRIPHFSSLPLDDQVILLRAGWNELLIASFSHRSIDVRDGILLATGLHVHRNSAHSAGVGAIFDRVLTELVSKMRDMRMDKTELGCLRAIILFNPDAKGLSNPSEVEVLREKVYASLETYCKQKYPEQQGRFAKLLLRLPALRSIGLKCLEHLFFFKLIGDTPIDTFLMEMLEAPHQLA

[3] = molecular target: T3, Retinoic acid receptor beta (Homo sapiens, UniProt P10826); experiment: (§1) Compound was tested for binding affinity against retinoic acid receptor using 5 nM of [3H]RA as a radioligand in baculovirus expressed receptor
T3 sequence (P10826 whole entry): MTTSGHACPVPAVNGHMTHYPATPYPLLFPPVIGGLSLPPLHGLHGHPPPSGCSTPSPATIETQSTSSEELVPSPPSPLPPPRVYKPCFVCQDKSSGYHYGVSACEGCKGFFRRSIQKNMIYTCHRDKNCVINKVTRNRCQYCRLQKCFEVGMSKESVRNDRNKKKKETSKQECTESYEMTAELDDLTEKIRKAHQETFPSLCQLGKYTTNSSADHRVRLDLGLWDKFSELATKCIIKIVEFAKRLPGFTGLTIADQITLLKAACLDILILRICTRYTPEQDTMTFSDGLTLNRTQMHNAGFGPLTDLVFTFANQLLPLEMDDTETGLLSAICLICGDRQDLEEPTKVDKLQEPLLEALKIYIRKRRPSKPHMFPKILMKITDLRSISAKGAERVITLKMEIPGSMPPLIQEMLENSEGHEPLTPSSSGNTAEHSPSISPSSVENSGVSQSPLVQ

[4] = molecular target: T1, Retinoic acid receptor gamma; experiment: as §1
[5] = molecular target: T4, Retinoic acid receptor alpha (Homo sapiens, UniProt P10276); experiment: as §1
T4 sequence (P10276 whole entry): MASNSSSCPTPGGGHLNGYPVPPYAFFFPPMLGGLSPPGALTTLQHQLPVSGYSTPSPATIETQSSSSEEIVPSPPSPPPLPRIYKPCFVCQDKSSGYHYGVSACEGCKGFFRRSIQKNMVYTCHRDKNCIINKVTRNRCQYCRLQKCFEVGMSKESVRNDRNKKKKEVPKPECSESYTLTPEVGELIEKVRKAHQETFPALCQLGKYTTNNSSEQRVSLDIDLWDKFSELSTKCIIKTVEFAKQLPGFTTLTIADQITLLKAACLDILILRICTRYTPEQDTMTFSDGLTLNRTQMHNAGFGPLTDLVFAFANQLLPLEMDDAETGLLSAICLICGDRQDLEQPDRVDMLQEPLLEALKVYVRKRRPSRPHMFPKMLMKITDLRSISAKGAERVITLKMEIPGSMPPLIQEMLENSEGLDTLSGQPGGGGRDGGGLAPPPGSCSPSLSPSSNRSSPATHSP

[6] = molecular target: T2, Retinoic acid receptor RXR-beta; experiment: (§2) Compound was tested for binding affinity against retinoid X receptor using 5 nM of [3H]9-cis-RA as a radioligand in baculovirus expressed receptor
[7] = molecular target: T5, Retinoic acid receptor RXR-gamma (Homo sapiens, UniProt P48443); experiment: as §2
T5 sequence (P48443 whole entry): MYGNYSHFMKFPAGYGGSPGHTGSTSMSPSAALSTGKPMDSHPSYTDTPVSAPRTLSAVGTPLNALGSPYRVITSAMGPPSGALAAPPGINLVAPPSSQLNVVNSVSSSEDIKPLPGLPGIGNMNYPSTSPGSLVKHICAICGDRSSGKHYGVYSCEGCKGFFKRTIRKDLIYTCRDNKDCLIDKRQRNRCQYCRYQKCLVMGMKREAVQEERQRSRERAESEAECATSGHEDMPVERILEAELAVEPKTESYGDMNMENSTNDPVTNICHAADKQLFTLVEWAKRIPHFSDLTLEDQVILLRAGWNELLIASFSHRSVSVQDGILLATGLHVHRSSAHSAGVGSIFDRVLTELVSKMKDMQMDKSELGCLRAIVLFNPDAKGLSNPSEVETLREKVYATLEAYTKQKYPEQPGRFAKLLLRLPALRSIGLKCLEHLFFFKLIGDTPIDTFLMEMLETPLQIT

[8] = molecular target: T6, Retinoic acid receptor RXR-alpha (Homo sapiens, UniProt P19793); experiment: Compound was tested for functional activity in CV-1 cells transfected with an expression vector for retinoid X receptor alpha using transactivation assay; type: cell-based
T6 sequence (P19793 whole entry): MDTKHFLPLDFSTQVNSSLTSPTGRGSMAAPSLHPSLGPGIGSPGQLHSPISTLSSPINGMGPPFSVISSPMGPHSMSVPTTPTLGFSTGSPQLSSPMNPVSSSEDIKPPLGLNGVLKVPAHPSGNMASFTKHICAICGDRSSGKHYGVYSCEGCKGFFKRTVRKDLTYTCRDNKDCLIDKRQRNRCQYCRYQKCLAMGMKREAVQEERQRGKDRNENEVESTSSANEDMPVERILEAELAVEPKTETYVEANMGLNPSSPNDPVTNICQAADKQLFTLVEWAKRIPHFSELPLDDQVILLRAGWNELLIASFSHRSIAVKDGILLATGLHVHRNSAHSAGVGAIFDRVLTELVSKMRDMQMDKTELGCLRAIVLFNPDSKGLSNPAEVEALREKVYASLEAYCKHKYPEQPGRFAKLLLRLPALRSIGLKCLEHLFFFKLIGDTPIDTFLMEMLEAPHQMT

[9] = molecular target: T5, Retinoic acid receptor RXR-gamma; experiment: Compound was tested for functional activity in CV-1 cells transfected with an expression vector for retinoid X receptor gamma using transactivation assay; type: cell-based
[10] = molecular target: T6, Retinoic acid receptor RXR-alpha; experiment: Compound was tested for binding affinity against retinoid X receptor using 5 nM of [3H]-9-cis-RA as a radioligand in baculovirus expressed receptor
[11] = molecular target: T3, Retinoic acid receptor beta; experiment: Compound was tested for functional activity in CV-1 cells transfected with an expression vector for retinoic acid receptor beta using transactivation assay; type: cell-based
[12] = molecular target: T4, Retinoic acid receptor alpha; experiment: Compound was tested for functional activity in CV-1 cells transfected with an expression vector for retinoic acid receptor alpha using transactivation assay; type: cell-based

Structure (SMILES) | EC50 [1] | EC50 [2] | Kd [3] | Kd [4] | Kd [5] | Kd [6] | Kd [7] | EC50 [8] | EC50 [9] | Kd [10] | EC50 [11] | EC50 [12]
CC(/C=C/C1CC1(C)c1cc2c(cc1C)C(C)(C)CCC2(C)C)=C\C(=O)O (centres undefined) | > 1000 nM | 100 nM | > 1000 nM | > 1000 nM | > 1000 nM | 56 nM | 42 nM | 130 nM | 71 nM | 71 nM | > 1000 nM | > 1000 nM
CC(=CC(=O)O)/C=C/C1CC1(C)c1cc2c(cc1C)C(C)(C)CCC2(C)C (centres undefined) | > 1000 nM | > 1000 nM | > 1000 nM | > 1000 nM | > 1000 nM | > 1000 nM | > 1000 nM | > 1000 nM | > 1000 nM | > 1000 nM | > 1000 nM | > 1000 nM
